The results in this text go back to PubChem BioAssay AID328 (DTP/NCI, 2004).

Inconclusive results and toxic doses are left out.

For the assay, the system named is BDF1 mice, P388 leukemia ip, median survival T/C. Description: NCI In Vivo Anticancer Drug Screen. Data for tumor model P388 Leukemia (intraperitoneal) in B6D2F1 (BDF1) mice. Particulars: endpoint: median survival time, higher = longer survival. Put shortly:
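T/C = treated-group survival ÷ vehicle-control survival; tumour transplanted into mice before dosing.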

Setting [1] is: dose: 100.0 mg/kg/injection, schedule: Q04DX003 (ip), vehicle: saline with Tween-80.
[2] abbreviates: dose: 200.0 mg/kg/injection, schedule: Q04DX003 (ip), vehicle: saline with Tween-80.
[3] abbreviates: dose: 400.0 mg/kg/injection, schedule: Q04DX003 (ip), vehicle: saline with Tween-80.
[4] abbreviates: dose: 50.0 mg/kg/injection, schedule: Q04DX003 (ip), vehicle: saline.
Setting [5] is: dose: 100.0 mg/kg/injection, schedule: Q01DX009 (ip), vehicle: saline with Tween-80.
Setting [6] is: dose: 25.0 mg/kg/injection, schedule: Q04DX003 (ip), vehicle: Klucel (hydroxypropylcellulose) (HPC).
[7] abbreviates: dose: 50.0 mg/kg/injection, schedule: Q04DX003 (ip), vehicle: Klucel (hydroxypropylcellulose) (HPC).
Where [8] appears, read: dose: 100.0 mg/kg/injection, schedule: Q04DX003 (ip), vehicle: Klucel (hydroxypropylcellulose) (HPC).
Where [9] appears, read: dose: 50.0 mg/kg/injection, schedule: Q01DX009 (ip), vehicle: saline.
Where [10] appears, read: dose: 100.0 mg/kg/injection, schedule: Q01DX009 (ip), vehicle: saline.
Setting [11] is: dose: 200.0 mg/kg/injection, schedule: Q01DX009 (ip), vehicle: saline.
Setting [12] is: dose: 100.0 mg/kg/injection, schedule: Q04DX003 (ip), vehicle: saline.
Setting [13] is: dose: 200.0 mg/kg/injection, schedule: Q04DX003 (ip), vehicle: saline.
Setting [14] is: dose: 400.0 mg/kg/injection, schedule: Q04DX003 (ip), vehicle: saline.

For the compound `O=S(=O)(F)c1cc(C[P+](c2ccccc2)(c2ccccc2)c2ccccc2)ccc1Cl`, the T/C (dose: 2.0 mg/kg/injection, schedule: Q01DX009 (ip), vehicle: saline with Tween-80) was 109 % of control; the T/C (dose: 8.0 mg/kg/injection, schedule: Q01DX009 (ip), vehicle: Klucel (hydroxypropylcellulose) (HPC)) is 118 % of control; the T/C (dose: 8.0 mg/kg/injection, schedule: Q01DX009 (ip), vehicle: saline + alcohol) was 123 % of control; the T/C (dose: 12.0 mg/kg/injection, schedule: Q01DX009 (ip), vehicle: saline + alcohol) is 115 % of control; the T/C (dose: 18.0 mg/kg/injection, schedule: Q01DX009 (ip), vehicle: saline + alcohol) is 123 % of control; the T/C (dose: 25.0 mg/kg/injection, schedule: Q01DX009 (ip), vehicle: saline with Tween-80) was 110 % of control.

Turning to `Cc1ccc(-c2nn3c(-c4ccccc4)nnc3o2)cc1`, the T/C under setting [1] was 110 % of control, the T/C under setting [2] is 115 % of control and the T/C under setting [3] was 105 % of control.

As to `CCCN(CCC)CCCCO`, the T/C is 104 % of control (dose: 22.0 mg/kg/injection, schedule: Q04DX003 (ip), vehicle: saline); 109 % of control (dose: 33.0 mg/kg/injection, schedule: Q04DX003 (ip), vehicle: saline); 104 % of control under setting [4]; 104 % of control (dose: 75.0 mg/kg/injection, schedule: Q04DX003 (ip), vehicle: saline).

Regarding `CC(=O)/C=C/c1ccc([N+](=O)[O-])cc1`, the T/C by setting is: (dose: 100.0 mg/kg/injection, schedule: Q04DX003 (ip), vehicle: saline sonified) 90 % of control; (dose: 200.0 mg/kg/injection, schedule: Q04DX003 (ip), vehicle: saline sonified) 90 % of control; (dose: 400.0 mg/kg/injection, schedule: Q04DX003 (ip), vehicle: saline sonified) 100 % of control.

Regarding `CCCCN(C(=O)C(F)(F)F)C(C)(C)C(SSSC(c1ccc(Cl)cc1)C(C)(C)N(CCCC)C(=O)C(F)(F)F)c1ccc(Cl)cc1` (stereo not drawn), the T/C is 100 % of control under setting [5]; 100 % of control under setting [1]; 100 % of control (dose: 200.0 mg/kg/injection, schedule: Q01DX009 (ip), vehicle: saline with Tween-80); 100 % of control under setting [2]; 100 % of control (dose: 400.0 mg/kg/injection, schedule: Q01DX009 (ip), vehicle: saline with Tween-80); 118 % of control under setting [3].

Regarding `CC1(C)OS2(OC(C)(C)c3ccccc32)c2ccccc21`, the T/C by setting is: (dose: 50.0 mg/kg/injection, schedule: Q01DX009 (ip), vehicle: other) 101 % of control; (dose: 100.0 mg/kg/injection, schedule: Q01DX009 (ip), vehicle: other) 107 % of control; (dose: 200.0 mg/kg/injection, schedule: Q01DX009 (ip), vehicle: other) 117 % of control.

In the case of `COc1ccc(C=O)c(Cl)c1OC`, the T/C (dose: 12.0 mg/kg/injection, schedule: Q04DX003 (ip), vehicle: Klucel (hydroxypropylcellulose) (HPC)) is 90 % of control; the T/C under setting [6] was 100 % of control; the T/C under setting [7] is 95 % of control; the T/C (dose: 100.0 mg/kg/injection, schedule: Q01DX001 (ip), vehicle: Klucel (hydroxypropylcellulose) (HPC)) is 113 % of control; the T/C under setting [8] is 109 % of control; the T/C (dose: 200.0 mg/kg/injection, schedule: Q01DX001 (ip), vehicle: Klucel (hydroxypropylcellulose) (HPC)) was 109 % of control. For the same compound, the T/C runs as follows: (dose: 200.0 mg/kg/injection, schedule: Q04DX003 (ip), vehicle: Klucel (hydroxypropylcellulose) (HPC)) 104 % of control; (dose: 400.0 mg/kg/injection, schedule: Q01DX001 (ip), vehicle: Klucel (hydroxypropylcellulose) (HPC)) 113 % of control.

For `Cn1nnc(CC(=O)O)n1`, the T/C is, setting by setting: under setting [9], 110 % of control; under setting [10], 101 % of control; under setting [11], 99 % of control.

With `COC1=CCC23C(=O)C=CC(=O)C2(C1)C(=O)c1ccccc1C3=O` (stereo not drawn), the T/C is 105 % of control (dose: 3.12 mg/kg/injection, schedule: Q04DX003 (ip), vehicle: saline with Tween-80); 113 % of control (dose: 6.25 mg/kg/injection, schedule: Q04DX003 (ip), vehicle: saline with Tween-80); 113 % of control (dose: 12.5 mg/kg/injection, schedule: Q04DX003 (ip), vehicle: saline with Tween-80).

For the compound `O=C(Oc1ccc(-c2ccc(Br)cc2)cc1)c1ccco1`, the T/C reads like this: (dose: 50.0 mg/kg/injection, schedule: Q01DX009 (ip), vehicle: saline with Tween-80) 90 % of control; under setting [5], 90 % of control.

Consider `CC(=O)Nc1cc(NC(C)=O)cc([N+](=O)[O-])c1`, for which the T/C reads like this: (dose: 25.0 mg/kg/injection, schedule: Q04DX003 (ip), vehicle: saline) 110 % of control; under setting [4], 106 % of control; under setting [12], 100 % of control; under setting [13], 107 % of control; under setting [14], 103 % of control.

For the compound `BrCc1c(CBr)c(CBr)c(CBr)c(CBr)c1CBr`, the T/C is 95 % of control (dose: 25.0 mg/kg/injection, schedule: Q01DX009 (ip), vehicle: Klucel (hydroxypropylcellulose) (HPC)); 109 % of control under setting [6]; 100 % of control (dose: 50.0 mg/kg/injection, schedule: Q01DX009 (ip), vehicle: Klucel (hydroxypropylcellulose) (HPC)); 100 % of control under setting [7]; 109 % of control (dose: 100.0 mg/kg/injection, schedule: Q01DX009 (ip), vehicle: Klucel (hydroxypropylcellulose) (HPC)); 95 % of control under setting [8].

`C=C1C(=O)OC2CC3(C)CC(O)C(OC(C)=O)C(=C)C3CC12` (stereo not drawn): the T/C (dose: 25.0 mg/kg/injection, schedule: Q01DX009 (ip), vehicle: saline) is 104 % of control and the T/C under setting [9] was 101 % of control.

Regarding `CCSc1nc(Cl)cc(Sc2nc(N)nc3nc[nH]c23)n1`, the T/C reads like this: (dose: 17.0 mg/kg/injection, schedule: Q01DX010 (ip), vehicle: acetone) 113 % of control; (dose: 18.0 mg/kg/injection, schedule: Q01DX009 (ip), vehicle: Klucel (hydroxypropylcellulose) (HPC)) 115 % of control; (dose: 26.0 mg/kg/injection, schedule: Q01DX010 (ip), vehicle: acetone) 168 % of control; (dose: 40.0 mg/kg/injection, schedule: Q01DX010 (ip), vehicle: saline) 150 % of control; (dose: 60.0 mg/kg/injection, schedule: Q01DX010 (ip), vehicle: saline) 165 % of control; (dose: 132.0 mg/kg/injection, schedule: Q01DX010 (ip), vehicle: saline) 110 % of control. Moreover, the T/C by setting is: (dose: 200.0 mg/kg/injection, schedule: Q01DX009 (ip), vehicle: Klucel (hydroxypropylcellulose) (HPC)) 95 % of control; (dose: 200.0 mg/kg/injection, schedule: Q01DX010 (ip), vehicle: saline) 90 % of control.

Turning to `CCOC(=O)CSC(=S)SCC(=O)OCC`, the T/C runs as follows: under setting [10], 100 % of control; under setting [12], 90 % of control; under setting [11], 105 % of control; under setting [13], 100 % of control; (dose: 400.0 mg/kg/injection, schedule: Q01DX009 (ip), vehicle: saline) 100 % of control; under setting [14], 100 % of control.
